Test results reported in US4435583A, “2-Halo-substituted monic acid A useful as antibacterial compounds” (Beecham Group p.l.c., priority 1981, dated 1984).
In brackets after ≈: the same amount, converted by molar mass.

How the values were obtained:
Type in all cases: cell-based
M. suipneumoniae NB12 = test: In vitro anti-mycoplasmal MIC; details: Friis broth, 0.9% agarose, 6 days, 37° C.
M. suipneumoniae MS16 = test: In vitro anti-mycoplasmal MIC; details: Mesomycoplasma hyopneumoniae, MS16, 144 h, Friis broth, 0.9% agarose, 6 days, 37° C.
[1] = test system: M. suipneumoniae PW/C/210; test: In vitro anti-mycoplasmal MIC; details: Mesomycoplasma hyopneumoniae, 144 h, Friis broth, 0.9% agarose, 6 days, 37° C.
M. suipneumoniae UCD 1 = test: In vitro anti-mycoplasmal MIC; details: Friis broth, 0.9% agarose, 6 days, 37° C.
[2] = test system: M. suipneumoniae NCTC 10110; test: In vitro anti-mycoplasmal MIC; details: Friis broth, 0.9% agarose, 6 days, 37° C.
M. hyorhinis ATCC 23234 = test: In vitro anti-mycoplasmal MIC; details: Mesomycoplasma hyorhinis, ATCC23234, 144 h, Friis broth, 0.9% agarose, 6 days, 37° C.
M. bovis NCTC 10131 = test: microbe, parasite or virus in culture; details: Mycobacterium tuberculosis variant bovis, NCTC10131, 144 h
[3] = test system: M. bovigenitalium ATCC 14173; test: In vitro anti-mycoplasmal MIC; details: 144 h, Friis broth, 0.9% agarose, 6 days, 37° C.
M. gallisepticum S6 = test: In vitro anti-mycoplasmal MIC; details: Mycoplasmoides gallisepticum, 144 h, Friis broth, 0.9% agarose, 6 days, 37° C., read-out: MIC
Bord. bronchiseptica B08 = test: MIC against veterinary bacteria; details: Bordetella bronchiseptica, B08, 18 h, Diagnostic Sensitivity Test Agar, 37° C., read-out: MIC
Experimental: (§1) The values were determined using a two fold serial dilutions in Diagnostic Sensitivity Test Agar with an inoculum of 10^4 organisms and incubation for 18 hours at 37° C.

[4] = test system: Corynebacterium pyogenes CY1; test: MIC against veterinary bacteria; details: Rhodococcus (subgen. Prescottella) equi, Diagnostic Sensitivity Test Agar, 18 hours, 37° C., read-out: MIC
Experimental: as §1

E. coli NCTC 10418 [5] = test: MIC against veterinary bacteria; details: Escherichia coli, NCTC10418, Diagnostic Sensitivity Test Agar, 18 hours, 37° C., read-out: MIC
Experimental: as §1

Past. haemolytica PA5 = test: MIC against veterinary bacteria; details: Diagnostic Sensitivity Test Agar, 18 hours, 37° C.
Experimental: as §1

Past. multocida PA1 = test: MIC against veterinary bacteria; details: Diagnostic Sensitivity Test Agar, 18 hours, 37° C.
Experimental: as §1

S. dublin S7 = test: MIC against veterinary bacteria; details: Salmonella enterica, Diagnostic Sensitivity Test Agar, 18 hours, 37° C., read-out: MIC
Experimental: as §1

Staph. aureus Oxford [6] = test: MIC against veterinary bacteria; details: Diagnostic Sensitivity Test Agar, 18 hours, 37° C.
Experimental: as §1

Strep. dysgalactiae SPD1 = test: MIC against veterinary bacteria; details: Diagnostic Sensitivity Test Agar, 18 hours, 37° C.
Experimental: as §1

Bacillus subtilis 6633 = test: MIC against human bacteria; details: nutrient agar, 5% chocolated horse blood, 18 hours, 37° C.
Experimental: (§2) The values were determined by serial dilutions in nutrient agar with 5% chocolated horse blood after incubations for 18 hours at 37° C.

[7] = test system: Corynebacterium xerosis 9755; test: MIC against human bacteria; details: nutrient agar, 5% chocolated horse blood, 18 hours, 37° C., read-out: MIC
Experimental: as §2

E. coli ESS = test: MIC against human bacteria; details: nutrient agar, 5% chocolated horse blood, 18 hours, 37° C.
Experimental: as §2

E. coli NCTC 10418 [8] = test: MIC against human bacteria; details: Escherichia coli, NCTC10418, nutrient agar, 5% chocolated horse blood, 18 hours, 37° C., read-out: MIC
Experimental: as §2

[9] = test system: Haemophilus influenzae Q1; test: MIC against human bacteria; details: Haemophilus influenzae, Q1, 18 h, nutrient agar, 5% chocolated horse blood, 37° C.
Experimental: as §2

[10] = test system: Haemophilus influenzae Wy21; test: MIC against human bacteria; details: Haemophilus influenzae, WY21, 18 h, nutrient agar, 5% chocolated horse blood, 37° C.
Experimental: as §2

K. aerogenes A = test: MIC against human bacteria; details: Klebsiella aerogenes, nutrient agar, 5% chocolated horse blood, 18 hours, 37° C., read-out: MIC
Experimental: as §2

[11] = test system: Neisseria catarrhalis 1502; test: MIC against human bacteria; details: nutrient agar, 5% chocolated horse blood, 18 hours, 37° C.
Experimental: as §2

P. mirabilis 889 = test: MIC against human bacteria; details: Proteus mirabilis, nutrient agar, 5% chocolated horse blood, 18 hours, 37° C., read-out: MIC
Experimental: as §2

Past. multocida 1633 = test: MIC against human bacteria; details: nutrient agar, 5% chocolated horse blood, 18 hours, 37° C.
Experimental: as §2

[12] = test system: Ps. aeruginosa NCTC 10662; test: MIC against human bacteria; details: Pseudomonas aeruginosa, NCTC10662, nutrient agar, 5% chocolated horse blood, 18 hours, 37° C., read-out: MIC
Experimental: as §2

Sarcina lutea 8340 = test: MIC against human bacteria; details: Micrococcus luteus, nutrient agar, 5% chocolated horse blood, 18 hours, 37° C., read-out: MIC
Experimental: as §2

Staph. aureus Oxford [13] = test: MIC against human bacteria; details: nutrient agar, 5% chocolated horse blood, 18 hours, 37° C.
Experimental: as §2

Staph. aureus Russell = test: MIC against human bacteria; details: nutrient agar, 5% chocolated horse blood, 18 hours, 37° C.
Experimental: as §2

Staph. aureus W2827 = test: MIC against human bacteria; details: nutrient agar, 5% chocolated horse blood, 18 hours, 37° C.
Experimental: as §2

Strep. 2788-B = test: MIC against human bacteria; details: nutrient agar, 5% chocolated horse blood, 18 hours, 37° C.
Experimental: as §2

Strep. 641848-C = test: MIC against human bacteria; details: nutrient agar, 5% chocolated horse blood, 18 hours, 37° C.
Experimental: as §2

Strep. faecalis I = test: MIC against human bacteria; details: Enterococcus faecalis, nutrient agar, 5% chocolated horse blood, 18 hours, 37° C., read-out: MIC
Experimental: as §2

Strep. pneumoniae CN33 = test: MIC against human bacteria; details: nutrient agar, 5% chocolated horse blood, 18 hours, 37° C.
Experimental: as §2

[14] = test system: Strep. pyrogenes R80/421-A; test: MIC against human bacteria; details: nutrient agar, 5% chocolated horse blood, 18 hours, 37° C.
Experimental: as §2

With CCOC(=O)C(F)=C(C)CC1OCC(CC2OC2C(C)C(C)O)C(O)C1O [Example 1, Ethyl-4-[5S-(2S,3S-epoxy-5S-hydroxy-4S-methylhexyl)-3R, 4R-dihydroxytetrahydropyran-2S-yl]-2-fluoro-3-methylbut-2(Z)-enoate] the MIC (M. suipneumoniae NB12) was 0.5 µg/mL (≈ 1.28 µM), the MIC (M. suipneumoniae MS16) was 0.25 µg/mL (≈ 0.64 µM) and the MIC [1] was 0.25 µg/mL (≈ 0.64 µM). For the same compound, the MIC (M. suipneumoniae UCD 1) was 0.5 µg/mL (≈ 1.28 µM), the MIC [2] was 0.5 µg/mL (≈ 1.28 µM) and the MIC (M. hyorhinis ATCC 23234) was 0.25 µg/mL (≈ 0.64 µM). The MIC (M. bovis NCTC 10131) was 0.025 µg/mL (≈ 0.064 µM), the MIC [3] was 0.025 µg/mL (≈ 0.064 µM) and the MIC (M. gallisepticum S6) was 10 µg/mL (≈ 25.6 µM). The MIC (Bord. bronchiseptica B08) was 80 µg/mL (≈ 205 µM), the MIC [4] was 80 µg/mL (≈ 205 µM) and the MIC (E. coli NCTC 10418 [5]) was over 80 µg/mL. The MIC (Past. haemolytica PA5) was 5.0 µg/mL (≈ 12.8 µM), the MIC (Past. multocida PA1) was 1.3 µg/mL (≈ 3.33 µM) and the MIC (S. dublin S7) was over 80 µg/mL. It also gave an MIC (Staph. aureus Oxford [6]) of 0.63 µg/mL (≈ 1.61 µM), an MIC (Strep. dysgalactiae SPD1) of 1.3 µg/mL (≈ 3.33 µM) and an MIC (Bacillus subtilis 6633) of 2.5 µg/mL (≈ 6.4 µM). For the same compound, the MIC [7] was over 100 µg/mL, the MIC (E. coli ESS) was 5.0 µg/mL (≈ 12.8 µM) and the MIC (E. coli NCTC 10418 [8]) was over 100 µg/mL. For the same compound, the MIC [9] was 0.1 µg/mL (≈ 0.256 µM), the MIC [10] was 0.25 µg/mL (≈ 0.64 µM) and the MIC (K. aerogenes A) was over 100 µg/mL. It also gave an MIC [11] of 0.5 µg/mL (≈ 1.28 µM), an MIC (P. mirabilis 889) of over 100 µg/mL and an MIC (Past. multocida 1633) of 1.0 µg/mL (≈ 2.56 µM). The MIC [12] was over 100 µg/mL, the MIC (Sarcina lutea 8340) was over 100 µg/mL and the MIC (Staph. aureus Oxford [13]) was 1.0 µg/mL (≈ 2.56 µM). The MIC (Staph. aureus Russell) was 1.0 µg/mL (≈ 2.56 µM), the MIC (Staph. aureus W2827) was 1.0 µg/mL (≈ 2.56 µM) and the MIC (Strep. 2788-B) was 10.0 µg/mL (≈ 25.6 µM). It also gave an MIC (Strep. 641848-C) of 5.0 µg/mL (≈ 12.8 µM), an MIC (Strep. faecalis I) of over 100 µg/mL and an MIC (Strep. pneumoniae CN33) of 2.5 µg/mL (≈ 6.4 µM). The MIC [14] was 1.0 µg/mL (≈ 2.56 µM).
